Results taken from US10150760B2, “Compounds for use in preparing heterocyclic triazole agonists of the APJ receptor” (AMGEN INC., priority 2016, dated 2018).

Target: human APJ receptor (Homo sapiens (Human), UniProt P35414)
Assay: [35S]GTPγS binding assay on membranes from CHO cells stably expressing human APJ receptor
Type: biochemical
Conditions: read-out: Activity hAPJ SPA EC50 IP
Outline: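 Agonist-driven [35S]GTPγS (0.2 nM) binding was measured over 90 min at room temperature on human APJ-expressing CHO membranes with bead capture, in buffer containing 3 μM GDP, 200 mM NaCl and 5 mM MgCl2 (pH 7.5). Excess unlabelled GTPγS (100 μM) gave nonspecific signal; EC50 from non-linear fits.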

Sequence of human APJ receptor (P35414 whole entry): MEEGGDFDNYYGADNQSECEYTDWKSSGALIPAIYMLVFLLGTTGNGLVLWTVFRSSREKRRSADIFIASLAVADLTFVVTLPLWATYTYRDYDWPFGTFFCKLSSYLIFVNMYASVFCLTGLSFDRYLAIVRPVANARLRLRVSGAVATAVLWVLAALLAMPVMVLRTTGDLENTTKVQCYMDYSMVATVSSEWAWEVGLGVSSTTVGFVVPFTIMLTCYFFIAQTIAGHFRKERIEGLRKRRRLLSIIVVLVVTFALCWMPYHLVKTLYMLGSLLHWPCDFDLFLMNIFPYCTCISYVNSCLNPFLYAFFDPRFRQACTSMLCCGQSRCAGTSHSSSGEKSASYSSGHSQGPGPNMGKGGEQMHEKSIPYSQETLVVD

Row | EC50 [µM] | Substance
1 | 0.78 | (1R,2S)-1-(5-chloropyrimidin-2-yl)-N-(4-(2,6-dimethoxyphenyl)-5-((3aR,6aR)-hexahydro-3aH-cyclopenta[b]furan-3a-yl)-4H-1,2,4-triazol-3-yl)-1-methoxypropane-2-sulfonamide or (1R,2S)-1-(5-chloropyrimidin-2-yl)-N-(4-(2,6-dimethoxyphenyl)-5-((3aS,6aS)-hexahydro-3aH-cyclopenta[b]furan-3a-yl)-4H-1,2,4-triazol-3-yl)-1-methoxypropane-2-sulfonamide [Example 346.0]
2 | 0.36 | (1R,2S)-1-(5-chloropyrimidin-2-yl)-N-(4-(2,6-dimethoxyphenyl)-5-((3aR,6aR)-hexahydro-3aH-cyclopenta[b]furan-3a-yl)-4H-1,2,4-triazol-3-yl)-1-methoxypropane-2-sulfonamide or (1R,2S)-1-(5-chloropyrimidin-2-yl)-N-(4-(2,6-dimethoxyphenyl)-5-((3aS,6aS)-hexahydro-3aH-cyclopenta[b]furan-3a-yl)-4H-1,2,4-triazol-3-yl)-1-methoxypropane-2-sulfonamide [Example 347.0]
3 | 0.033 | (1R,2S)-1-(5-chloropyrimidin-2-yl)-N-(5-((R)-2,3-dihydrobenzo[b][1,4]dioxin-2-yl)-4-(2,6-dimethoxyphenyl)-4H-1,2,4-triazol-3-yl)-1-methoxypropane-2-sulfonamide or (1R,2S)-1-(5-chloropyrimidin-2-yl)-N-(5-((S)-2,3-dihydrobenzo[b][1,4]dioxin-2-yl)-4-(2,6-dimethoxyphenyl)-4H-1,2,4-triazol-3-yl)-1-methoxypropane-2-sulfonamide [Example 258.0]
4 | 0.088 | (1R,2S)-1-(5-chloropyrimidin-2-yl)-N-(5-((R)-2,3-dihydrobenzo[b][1,4]dioxin-2-yl)-4-(2,6-dimethoxyphenyl)-4H-1,2,4-triazol-3-yl)-1-methoxypropane-2-sulfonamide or (1R,2S)-1-(5-chloropyrimidin-2-yl)-N-(5-((S)-2,3-dihydrobenzo[b][1,4]dioxin-2-yl)-4-(2,6-dimethoxyphenyl)-4H-1,2,4-triazol-3-yl)-1-methoxypropane-2-sulfonamide [Example 259.0]
5 | 0.17 | (1R,2S)-N-(4-(1,3-dimethoxy-2-propanyl)-5-((2R,5R)-5-methyltetrahydro-2-furanyl)-4H-1,2,4-triazol-3-yl)-1-methoxy-1-(5-methoxy-2-pyrazinyl)-2-propanesulfonamide or (1R,2S)-N-(4-(1,3-dimethoxy-2-propanyl)-5-((2S,5S)-5-methyltetrahydro-2-furanyl)-4H-1,2,4-triazol-3-yl)-1-methoxy-1-(5-methoxy-2-pyrazinyl)-2-propanesulfonamide [Example 378.0]

Second part, the substance before the results:

Row | Substance | EC50 [µM]
6 | (1R,2S)-1-(5-chloropyrimidin-2-yl)-1-methoxy-N-(5-((2S,5S)-5-methyltetrahydrofuran-2-yl)-4-(tetrahydro-2H-pyran-4-yl)-4H-1,2,4-triazol-3-yl)propane-2-sulfonamide or (1R,2S)-1-(5-chloropyrimidin-2-yl)-1-methoxy-N-(5-((2R,5R)-5-methyltetrahydrofuran-2-yl)-4-(tetrahydro-2H-pyran-4-yl)-4H-1,2,4-triazol-3-yl)propane-2-sulfonamide [Example 226.0] | 1.4
7 | (1R,2S)-1-(5-chloropyrimidin-2-yl)-1-methoxy-N-(5-((2S,5S)-5-methyltetrahydrofuran-2-yl)-4-tetrahydro-2H-pyran-4-yl)-4H-1,2,4-triazol-3-yl)propane-2-sulfonamide or (1R,2S)-1-(5-chloropyrimidin-2-yl)-1-methoxy-N-(5-((2R,5R)-5-methyltetrahydrofuran-2-yl)-4-(tetrahydro-2H-pyran-4-yl)-4H-1,2,4-triazol-3-yl)propane-2-sulfonamide [Example 225.0] | 0.07
8 | (1R,2S)-1-(5-chloropyrimidin-2-yl)-N-(4-(2,6-dimethoxyphenyl)-5-((R)-1,1-dioxidotetrahydrothiophen-3-yl)-4H-1,2,4-triazol-3-yl)-1-methoxypropane-2-sulfonamide or (1R,2S)-1-(5-chloropyrimidin-2-yl)-N-(4-(2,6-dimethoxyphenyl)-5-((S)-1,1-dioxidotetrahydrothiophen-3-yl)-4H-1,2,4-triazol-3-yl)-1-methoxypropane-2-sulfonamide [Example 187.0] | 0.35
9 | (1R,2S)-1-(5-chloropyrimidin-2-yl)-N-(4-(2,6-dimethoxyphenyl)-5-((R)-1,1-dioxidotetrahydrothiophen-3-yl)-4H-1,2,4-triazol-3-yl)-1-methoxypropane-2-sulfonamide or (1R,2S)-1-(5-chloropyrimidin-2-yl)-N-(4-(2,6-dimethoxyphenyl)-5-((S)-1,1-dioxidotetrahydrothiophen-3-yl)-4H-1,2,4-triazol-3-yl)-1-methoxypropane-2-sulfonamide [Example 188.0] | 0.22
10 | (1R,2S)-1-(5-chloropyrimidin-2-yl)-N-(4-(2,6-dimethoxyphenyl)-5-((R)-1,4-dioxan-2-yl)-4H-1,2,4-triazol-3-yl)-1-methoxypropane-2-sulfonamide or (1R,2S)-1-(5-chloropyrimidin-2-yl)-N-(4-(2,6-dimethoxyphenyl)-5-((S)-1,4-dioxan-2-yl)-4H-1,2,4-triazol-3-yl)-1-methoxypropane-2-sulfonamide [Example 197.0] | 0.001
11 | (1R,2S)-1-(5-chloropyrimidin-2-yl)-N-(4-(4,6-dimethoxypyrimidin-5-yl)-5-((R)-5,5-dimethyltetrahydrofuran-3-yl)-4H-1,2,4-triazol-3-yl)-1-methoxypropane-2-sulfonamide or (1R,2S)-1-(5-chloropyrimidin-2-yl)-N-(4-(4,6-dimethoxypyrimidin-5-yl)-5-((S)-5,5-dimethyltetrahydrofuran-3-yl)-4H-1,2,4-triazol-3-yl)-1-methoxypropane-2-sulfonamide [Example 315.0] | 0.085
12 | (1R,2S)-1-(5-chloropyrimidin-2-yl)-N-(4-(4,6-dimethoxypyrimidin-5-yl)-5-((R)-5,5-dimethyltetrahydrofuran-3-yl)-4H-1,2,4-triazol-3-yl)-1-methoxypropane-2-sulfonamide or (1R,2S)-1-(5-chloropyrimidin-2-yl)-N-(4-(4,6-dimethoxypyrimidin-5-yl)-5-((S)-5,5-dimethyltetrahydrofuran-3-yl)-4H-1,2,4-triazol-3-yl)-1-methoxypropane-2-sulfonamide [Example 316.0] | 0.026
13 | (1R,2S)-1-(5-chloropyrimidin-2-yl)-N-(5-((S)-5,5-dimethyltetrahydrofuran-2-yl)-4-(tetrahydro-2H-pyran-4-yl)-4H-1,2,4-triazol-3-yl)-1-methoxypropane-2-sulfonamide or (1R,2S)-1-(5-chloropyrimidin-2-yl)-N-(5-((R)-5,5-dimethyltetrahydrofuran-2-yl)-4-(tetrahydro-2H-pyran-2-yl)-4H-1,2,4-triazol-3-yl)-1-methoxypropane-2-sulfonamide [Example 221.0] | 0.56
